Assay results published in patent EP4603105A1, “PHARMACEUTICAL COMPOSITION CONTAINING CYCLIC COMPOUND HAVING SELECTIVE KRAS INHIBITORY EFFECT AGAINST HRAS AND NRAS” (CHUGAI SEIYAKU KABUSHIKI KAISHA, priority 2022, dated 2024).

How the values were obtained:
[1] = test system: human bladder cancer strain UM-UC-3; assay type: cell-based
Outline: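 UM-UC-3 human bladder cancer cells were seeded at 250 cells/well onto serially diluted compound in MEM with 10% FBS. Viability was read as CellTiter-Glo luminescence.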

[2] = molecular target: GDP-bound NRAS wild-type protein (Homo sapiens, UniProt P01111); experiment: Binding to NRAS by surface plasmon resonance (SPR), KD and KD ratio to KRAS
Outline: (§1)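 SPR, 30°C: Avi-biotin RAS·GDP captured via Biotin CAPture (~100–300 RU); running buffer HBS pH 7.4, 1 mM DTT, 10 mM MgCl2, 0.01% Tween 20, 10 µM GDP, 4% DMSO. Single-cycle kinetics, 100 µL/min, 75 s injections; 1:1 model → KD.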

[3] = test system: human pancreatic cancer strain KP4; assay type: cell-based
Outline: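 KP4 pancreatic cancer cells seeded at 500 cells/well in DMEM/Ham's F-12 with 10% FBS onto serially diluted compound. Viability read by CellTiter-Glo luminescence.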

[4] = test system: human lung cancer strain NCI-H441; assay type: cell-based
Outline: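 Proliferation was scored by […] measured after the reagent was added to cultures kept at 37°C in 5% carbon dioxide.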

[5] = test system: human ovarian cancer strain OV7; assay type: cell-based
Outline: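 OV7 cells, 250 per well, in DMEM/Ham's F-12 with 5% FBS, 0.5 µg/mL hydrocortisone and 10 µg/mL insulin, grown 7 days at 37°C with serially diluted compound. Viability by CellTiter-Glo luminescence.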

[6] = molecular target: GDP-bound KRAS wild-type protein (Homo sapiens, UniProt P01116); experiment: Binding to KRAS by surface plasmon resonance (SPR), dissociation constant KD; conditions: Single Cycle Kinetics
Outline: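 Affinity is measured by surface plasmon resonance at 30°C against captured, GDP-loaded RAS carrying a biotinylated Avi tag. Compounds are titrated by single-cycle kinetics, and KD comes from a 1:1 fit.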

[7] = test system: human gastric cancer strain SNU-1; assay type: cell-based
Outline: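 SNU-1 gastric cancer cells, 250 cells/well in RPMI-1640 with 10% FBS, glucose, HEPES and sodium pyruvate, plated onto serially diluted compound in DMSO.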

HRAS wild-type protein = HRAS wild-type protein (Homo sapiens, UniProt P01112); experiment: Binding to HRAS by surface plasmon resonance (SPR), KD and KD ratio to KRAS
Outline: as §1

[8] = test system: human colorectal cancer strain GP2d; assay type: cell-based
Outline: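 Cells seeded at 500 cells/well in DMEM with 10% FBS onto serially diluted compound in DMSO, then cultured 7 days at 37°C, 5% CO2. Viability read by CellTiter-Glo luminescence.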

[9] = test system: human gastric cancer strain GSU; assay type: cell-based
Outline: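 Cells seeded at 200 per well in RPMI-1640 with 10% FBS onto serially diluted compound (DMSO) in U-bottom plates. Viability read by CellTiter-Glo luminescence.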

[10] = ratio of KD for GDP-bound NRAS wild-type protein to KD for KRAS
[11] = ratio of KD for HRAS wild-type protein to KD for KRAS

Sequence of HRAS wild-type protein (P01112 whole entry): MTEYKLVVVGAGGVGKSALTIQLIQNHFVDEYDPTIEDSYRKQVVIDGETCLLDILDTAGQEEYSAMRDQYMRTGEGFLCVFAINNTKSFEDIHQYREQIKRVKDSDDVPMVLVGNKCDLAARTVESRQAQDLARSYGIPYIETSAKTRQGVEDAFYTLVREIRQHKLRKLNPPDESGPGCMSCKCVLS
Sequence of GDP-bound NRAS wild-type protein (P01111 whole entry): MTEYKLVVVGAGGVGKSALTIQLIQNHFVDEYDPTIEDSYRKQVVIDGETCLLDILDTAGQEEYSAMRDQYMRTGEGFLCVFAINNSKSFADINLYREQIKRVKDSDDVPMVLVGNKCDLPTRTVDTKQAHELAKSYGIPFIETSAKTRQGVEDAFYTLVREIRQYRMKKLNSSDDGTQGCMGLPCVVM
Sequence of GDP-bound KRAS wild-type protein (P01116 1-188 isoform P01116-2): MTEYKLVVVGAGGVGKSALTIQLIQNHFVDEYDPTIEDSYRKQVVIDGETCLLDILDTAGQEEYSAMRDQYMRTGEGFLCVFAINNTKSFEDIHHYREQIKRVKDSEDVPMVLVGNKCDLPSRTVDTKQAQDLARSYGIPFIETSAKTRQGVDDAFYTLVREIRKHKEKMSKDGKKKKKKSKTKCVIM

IC50 [1] | IC50 [3] | IC50 [4] | IC50 [5] | Kd [6] | IC50 [7] | IC50 [8] | IC50 [9] | Kd ([6]; 1:1 binding model) | Compound | NRAS /KRAS [2, 10] | HRAS /KRAS (HRAS wild-type protein; [11]) | NRAS /KRAS ([2]; ratio of KD value for GDP-bound NRAS wild-type protein to KD value for KRAS (SPR)) | HRAS /KRAS (HRAS wild-type protein; ratio of KD value for HRAS wild-type protein to KD value for KRAS (SPR))
0.7 nM | 3.2 nM | 1.6 nM | 2.2 nM | 0.026 nM | 2 nM | 1.1 nM | 0.4 nM | – | C#CC[C@H]1C(=O)N[C@@H]([C@@H](C)CC)C(=O)N(C)CC(=O)N(C)[C@H]2C/C=C\CCN(C2=O)[C@@H](Cc2ccc(C(F)(F)F)cc2)C(=O)N(C)CC(=O)N[C@@H](CCc2ccc(C(F)(F)F)c(Cl)c2)C(=O)N2C[C@H](OCC)C[C@H]2C(=O)N(C)C2(CCC2)C(=O)N(C)[C@@H](C2CCCC2)C(=O)N(C)[C@H](C(=O)N(C)C)CC(=O)N1C [PP3234, (2S,8S,12R,14S,20S,23S,27S,30S,36S,38Z)-8-[2-[3-chloro-4-(trifluoromethyl)phenyl]ethyl]-20-cyclopentyl-12-ethoxy-N,N,4,16,19,22,26,32,35-nonamethyl-30-[(1S)-1-methylpropyl]-3,6,9,15,18,21,25,28,31,34,42-undecaoxo-27-prop-2-ynyl-2-[[4-(trifluoromethyl)phenyl]methyl]spiro[1,4,7,10,16,19,22,26,29,32,35-undecazatricyclo[34.5.1.0^10,14]dotetracont-38-ene-17,1'-cyclobutane]-23-carboxamide] | A (a compound having 10 or more and less than 20 is denoted as A) | B (a compound having 3 or more and less than 10 is denoted as B) | – | –
4.1 nM | 14.2 nM | 1.1 nM | 7.4 nM | – | 4.3 nM | 2.4 nM | 0.5 nM | 0.027 nM | CCCC[C@H]1C(=O)N[C@@H]([C@@H](C)CC)C(=O)N(C)CC(=O)N(C)[C@H]2C/C=C\CCN(C2=O)[C@@H](Cc2ccc(C(F)(F)F)cc2)C(=O)N(C)CC(=O)N[C@@H](CCc2cc(F)c(C(F)(F)F)c(F)c2)C(=O)N2C[C@H](F)C[C@H]2C(=O)NC2(CC(C)(C)C2)C(=O)N(C)[C@@H](C2CCCC2)C(=O)N(C)[C@H](C(=O)N(C)C)CC(=O)N1C [PP1693, (2S,8S,12R,14S,20S,23S,27S,30S,36S,38Z)-27-butyl-20-cyclopentyl-8-[2-[3,5-difluoro-4-(trifluoromethyl)phenyl]ethyl]-12-fluoro-N,N,3',3',4,19,22,26,32,35-decamethyl-30-[(1S)-1-methylpropyl]-3,6,9,15,18,21,25,28,31,34,42-undecaoxo-2-[[4-(trifluoromethyl)phenyl]methyl]spiro[1,4,7,10,16,19,22,26,29,32,35-undecazatricyclo[34.5.1.0^10,14]dotetracont-38-ene-17,1'-cyclobutane]-23-carboxamide] | – | – | AA (a compound having 20 or more is denoted as AA) | A (a compound having 10 or more and less than 20 is denoted as A)
1.5 nM | 4.2 nM | 1.9 nM | 2.1 nM | 0.022 nM | 2.1 nM | 1.5 nM | 0.6 nM | – | C#CC[C@H]1C(=O)N[C@@H]([C@@H](C)CC)C(=O)N(C)CC(=O)N(C)[C@H]2C/C=C\CCN(C2=O)[C@@H](Cc2ccc(C)cc2)C(=O)N(C)CC(=O)N[C@@H](CCc2cc(F)c(C(F)(F)F)c(F)c2)C(=O)N2C[C@H](OCC)C[C@H]2C(=O)N(C)C2(CCC2)C(=O)N(C)[C@@H](C2CCCC2)C(=O)N(C)[C@H](C(=O)N(C)C)CC(=O)N1C [PP3238, (2S,8S,12R,14S,20S,23S,27S,30S,36S,38Z)-20-cyclopentyl-8-[2-[3,5-difluoro-4-(trifluoromethyl)phenyl]ethyl]-12-ethoxy-N,N,4,16,19,22,26,32,35-nonamethyl-30-[(1S)-1-methylpropyl]-3,6,9,15,18,21,25,28,31,34,42-undecaoxo-27-prop-2-ynyl-2-(p-tolylmethyl)spiro[1,4,7,10,16,19,22,26,29,32,35-undecazatricyclo[34.5.1.0^10,14]dotetracont-38-ene-17,1'-cyclobutane]-23-carboxamide] | A (a compound having 10 or more and less than 20 is denoted as A) | A (a compound having 10 or more and less than 20 is denoted as A) | – | –
